Test results as given in article PMC11012799 (Molecules, 2024).
≈ marks a conversion by molar mass, not a printed value. Structures can show the parent of a compound that is named as a salt. Where two headings read alike, the source gives them in different places.

How the values were obtained:
[1] = tested on: Escherichia coli NCTC 8196; assay: MIC, two-fold microdilution (EUCAST), E. coli reference strain; assay type: cell-based; conditions: read-out: MIC (µM) Escherichia coli NCTC 8196
Description: (§1) A panel of reference bacteria, including Escherichia coli NCTC 8196, Staphylococcus aureus ATCC 6538, Klebsiella pneumoniae ATCC 13883, and Pseudomonas aeruginosa NCTC 6749, was used to assess the antibacterial activity of the nine tested aziridine phosphines (1–4) and aziridine phosphine oxides (5–9). The two-fold microdilution method, following EUCAST guidelines, was used to determine a minimal inhibitory concentration (MIC) of each compound, as presented in Table S1.
(§2) Antibacterial activity: The in vitro antibacterial activity of nine tested aziridine phosphines (1–4) and aziridine phosphine oxides (5–9) was evaluated against reference bacterial strains (E. coli NCTC 8196, S. aureus ATCC 6538, K. pneumoniae ATCC 13883, P. aeruginosa NCTC 6749) and 12 S. aureus clinical isolates, including two methicillin-resistant isolates (MRSA, D15 and D17) obtained from infected patients hospitalized at the Oncological Hospital in Lodz (Poland). All strains were kept frozen at −80 °C in Tryptic Soy Broth with 15% glycerol. The minimal inhibitory concentration (MIC) is defined as the lowest concentration of the compound that prevents visible growth of bacteria using the microdilution method followed the EUCAST guidelines. Each compound was added to 96-well microplates in two-fold dilutions at concentrations from 3.125 to 100 μM in Mueller–Hinton broth. […] Bacterial culture was added into wells at a density of 5 × 10^5 CFU mL^−1, and plates were incubated at 37 °C for 18 h. As a positive control, an untreated bacterial culture was used, and a clear culture medium served as a negative control. The optical density at OD600 was measured using the SpectraMax i3 Multi-Mode Platform (Molecular Devices, San Jose, CA, USA). Ciprofloxacin hydrochloride (CIP, Sigma-Aldrich, Darmstadt, Germany) was used as a reference antimicrobial drug.

[2] = tested on: Staphylococcus aureus ATCC 6538; assay: MIC, two-fold microdilution (EUCAST), S. aureus reference strain; assay type: cell-based; conditions: read-out: MIC (µM) Staphylococcus aureus ATCC 6538
Description: as §1, §2

[3] = tested on: Klebsiella pneumoniae ATCC 13883; assay: MIC, two-fold microdilution (EUCAST), K. pneumoniae reference strain; assay type: cell-based; conditions: read-out: MIC (µM) Klebsiella pneumoniae ATCC 13883
Description: as §1, §2

[4] = tested on: Pseudomonas aeruginosa NCTC 6749; assay: MIC, two-fold microdilution (EUCAST), P. aeruginosa reference strain; assay type: cell-based; conditions: read-out: MIC (µM) Pseudomonas aeruginosa NCTC 6749
Description: as §1, §2

L929 cells = assay: cells; assay type: cell-based, murine; conditions: read-out: IC50 (µM) L929
Procedure: (§3) Considering our previous research and the literature reports on the antitumor activity of aziridine derivatives, aziridine phosphines (1–4) and aziridine phosphine oxides (5–9) were tested to investigate their potential anticancer activity. The in vitro effects on cell viability were assessed using the 3-(4,5-dimethylthiazol-2-yl)-2,5-diphenyltetrazolium bromide (MTT) assay on non-tumorigenic murine fibroblasts (L929) as well as two cancer cell lines: human cervical epithelioid carcinoma (HeLa) cells and endometrial adenocarcinoma (Ishikawa) cells.
(§4) Cell viability inhibition: The in vitro effects on cell viability were determined using the 3-(4,5-dimethylthiazol-2-yl)-2,5-diphenyltetrazolium bromide (MTT) assay on non-tumorigenic murine fibroblasts L929 (ATTC®—CCL-1) as well as two cancer cell lines: human cervical epithelioid carcinoma HeLa cells (ATTC®—CCL-2™) and endometrial adenocarcinoma Ishikawa cells (ECACC 99040201). Cells were cultured on 96-well microplates at a density of 1 × 10^4 cells/well following the international in Dulbecco’s Modified Eagle’s Medium (DMEM, Biowest) supplemented with 10% fetal bovine serum (FBS, Biowest, Nuaillé, France), 100 U/mL of penicillin, and 100 μg/mL of streptomycin (Biowest, Nuaillé, France). After overnight incubation at 37 °C and 5% CO2, the growth medium was removed and 100 μL of fresh media with two-fold dilutions of the tested compounds at concentrations of 3.125–100 μM were added. […] Untreated cells in medium were used as a positive control, while a clear culture medium served as a negative control.

HeLa cells = assay: cells; assay type: cell-based, human; conditions: for IC50: read-out: IC50 (µM) HeLa; for selectivity index (SI) HeLa: efficacy against HeLa versus normal fibroblasts L929, SI > 1.0 = greater efficacy against cancer cells
Procedure: as §3, §4

Ishikawa cells = assay: cells; assay type: cell-based, human; conditions: for IC50: read-out: IC50 (µM) Ishikawa; for selectivity index (SI) Ishikawa: efficacy against Ishikawa versus normal fibroblasts L929, SI > 1.0 = greater efficacy against cancer cells
Procedure: as §3, §4

[5] = tested on: clinical S. aureus strains; assay: MIC, microdilution, 12 clinical S. aureus strains; assay type: cell-based, Staphylococcus aureus; conditions: panel of 12 clinical isolates (naso-pharynx, ulcers/furuncles, bones), highest tested concentration 100 µM
Description: as §1, §2

[6] = MTT, 24 h treatment, IC50 ± SD, three independent experiments
[7] = Escherichia coli, NCTC8196, 18 h
[8] = Staphylococcus aureus, ATCC6538, 18 h
[9] = Klebsiella pneumoniae, ATCC13883, 18 h
[10] = Pseudomonas aeruginosa, NCTC6749, 18 h
[11] = tested range 3.125–100 µM, 37 °C, 18 h

Compound	IC50 (L929 cells; Mus musculus, L929, 24 h) [µM]	IC50 (HeLa cells; Homo sapiens, 24 h) [µM]	selectivity index (SI) HeLa (HeLa cells)	IC50 (Ishikawa cells; Homo sapiens, Ishikawa, 24 h) [µM]	selectivity index (SI) Ishikawa (Ishikawa cells)	MIC [1, 7] [µM]	MIC [2, 8] [µM]	MIC [3, 9] [µM]	MIC [4, 10] [µM]	further results
O=C(O)c1cn(C2CC2)c2cc(N3CCNCC3)c(F)cc2c1=O [CIP, Ciprofloxacin hydrochloride, reference compound]	–	–	–	–	–	–	–	–	–	MIC ([1]; Escherichia coli, NCTC8196, tested range 3.125–100 µM, 37 °C, 18 h): 0.04 µM; MIC ([2]; Staphylococcus aureus, ATCC6538, tested range 3.125–100 µM, 37 °C, 18 h): 1.6 µM; MIC ([3]; Klebsiella pneumoniae, ATCC13883, tested range 3.125–100 µM, 37 °C, 18 h): 0.2 µM; MIC ([4]; Pseudomonas aeruginosa, NCTC6749, tested range 3.125–100 µM, 37 °C, 18 h): 2.5 µM
N.N.[Cl][Pt][Cl] [CisPt, cisplatin, reference compound]	–	–	–	–	–	–	–	–	–	IC50 (L929 cells; [6]): 26.2 ± 7.5 µM; IC50 (HeLa cells; [6]): 10.4 ± 4.4 µM; IC50 (Ishikawa cells; [6]): 17.3 ± 5.2 µM
CC(C)[C@@H]1CN1c1ccccc1P(c1ccccc1)c1ccccc1 [Compound 1]	68.1 ± 11.2	> 100	< 1	13.9 ± 7.1	4.9	> 100	50 (≈ 17.3 µg/mL)	> 100	> 100	–
CC(C)[C@H]1CN1c1ccccc1P(c1ccccc1)c1ccccc1 [Compound 2]	> 100	> 100	–	14.8 ± 6.5	> 6.7	> 100	50 (≈ 17.3 µg/mL)	> 100	> 100	–
CC(C)C[C@H]1CN1c1ccccc1P(c1ccccc1)c1ccccc1 [Compound 3]	> 100	30.3 ± 4.5	> 3.3	> 100	–	> 100	50 (≈ 18 µg/mL)	> 100	> 100	–
c1ccc([C@H]2CN2c2ccccc2P(c2ccccc2)c2ccccc2)cc1 [Compound 4]	22 ± 3.4	39.2 ± 6.7	< 1	> 100	< 1	> 100	50 (≈ 19 µg/mL)	> 100	> 100	–
CC(C)[C@H]1CN1c1ccccc1P(=O)(c1ccccc1)c1ccccc1 [Compound 6]	13.7 ± 3.1	40.7 ± 11.1	< 1	16.6 ± 2.5	< 1	> 100	50 (≈ 18.1 µg/mL)	> 100	> 100	MIC ([5]; Staphylococcus aureus): 100 µM (≈ 36.1 µg/mL); MIC [5]: 100 µM (≈ 36.1 µg/mL)
O=P(c1ccccc1)(c1ccccc1)c1ccccc1N1C[C@@H]1c1ccccc1 [Compound 8]	17 ± 4.4	19.6 ± 3.2	< 1	23.4 ± 7.6	< 1	> 100	50 (≈ 19.8 µg/mL)	> 100	> 100	–
(2S)-2-diphenylphosphinoyl-2-phenylaziridine [Compound 9]	–	–	–	–	–	–	–	–	–	IC50 (L929 cells; [6]): > 100 µM; IC50 (HeLa cells; [6]): 48.8 ± 12.3 µM; IC50 (Ishikawa cells; [6]): > 100 µM; MIC [1, 11]: > 100 µM; MIC [2, 11]: 50 µM; MIC [3, 11]: > 100 µM; MIC [4, 11]: > 100 µM
